# Data: article PMC10238656 (Cancer discovery, 2023)
# Where “and” joins values, the source holds several entries; their conditions need not be identical. Identical values can stand only once. Like-named read-outs stand apart in the source and are kept apart here.
# How the values were obtained:
# [1] = target: full-length recombinant KDM5D (Homo sapiens, UniProt Q9BY66)
# [2] = system: TET2; settings: cited from earlier work
# [3] = system: KDM5B; settings: cited from earlier work
# [4] = target: full-length recombinant KDM5C (Homo sapiens, UniProt P41229); experiment: KDM5C enzyme kinetic assay; format: biochemical
# full-length recombinant KDM5C, sequence (P41229 whole entry): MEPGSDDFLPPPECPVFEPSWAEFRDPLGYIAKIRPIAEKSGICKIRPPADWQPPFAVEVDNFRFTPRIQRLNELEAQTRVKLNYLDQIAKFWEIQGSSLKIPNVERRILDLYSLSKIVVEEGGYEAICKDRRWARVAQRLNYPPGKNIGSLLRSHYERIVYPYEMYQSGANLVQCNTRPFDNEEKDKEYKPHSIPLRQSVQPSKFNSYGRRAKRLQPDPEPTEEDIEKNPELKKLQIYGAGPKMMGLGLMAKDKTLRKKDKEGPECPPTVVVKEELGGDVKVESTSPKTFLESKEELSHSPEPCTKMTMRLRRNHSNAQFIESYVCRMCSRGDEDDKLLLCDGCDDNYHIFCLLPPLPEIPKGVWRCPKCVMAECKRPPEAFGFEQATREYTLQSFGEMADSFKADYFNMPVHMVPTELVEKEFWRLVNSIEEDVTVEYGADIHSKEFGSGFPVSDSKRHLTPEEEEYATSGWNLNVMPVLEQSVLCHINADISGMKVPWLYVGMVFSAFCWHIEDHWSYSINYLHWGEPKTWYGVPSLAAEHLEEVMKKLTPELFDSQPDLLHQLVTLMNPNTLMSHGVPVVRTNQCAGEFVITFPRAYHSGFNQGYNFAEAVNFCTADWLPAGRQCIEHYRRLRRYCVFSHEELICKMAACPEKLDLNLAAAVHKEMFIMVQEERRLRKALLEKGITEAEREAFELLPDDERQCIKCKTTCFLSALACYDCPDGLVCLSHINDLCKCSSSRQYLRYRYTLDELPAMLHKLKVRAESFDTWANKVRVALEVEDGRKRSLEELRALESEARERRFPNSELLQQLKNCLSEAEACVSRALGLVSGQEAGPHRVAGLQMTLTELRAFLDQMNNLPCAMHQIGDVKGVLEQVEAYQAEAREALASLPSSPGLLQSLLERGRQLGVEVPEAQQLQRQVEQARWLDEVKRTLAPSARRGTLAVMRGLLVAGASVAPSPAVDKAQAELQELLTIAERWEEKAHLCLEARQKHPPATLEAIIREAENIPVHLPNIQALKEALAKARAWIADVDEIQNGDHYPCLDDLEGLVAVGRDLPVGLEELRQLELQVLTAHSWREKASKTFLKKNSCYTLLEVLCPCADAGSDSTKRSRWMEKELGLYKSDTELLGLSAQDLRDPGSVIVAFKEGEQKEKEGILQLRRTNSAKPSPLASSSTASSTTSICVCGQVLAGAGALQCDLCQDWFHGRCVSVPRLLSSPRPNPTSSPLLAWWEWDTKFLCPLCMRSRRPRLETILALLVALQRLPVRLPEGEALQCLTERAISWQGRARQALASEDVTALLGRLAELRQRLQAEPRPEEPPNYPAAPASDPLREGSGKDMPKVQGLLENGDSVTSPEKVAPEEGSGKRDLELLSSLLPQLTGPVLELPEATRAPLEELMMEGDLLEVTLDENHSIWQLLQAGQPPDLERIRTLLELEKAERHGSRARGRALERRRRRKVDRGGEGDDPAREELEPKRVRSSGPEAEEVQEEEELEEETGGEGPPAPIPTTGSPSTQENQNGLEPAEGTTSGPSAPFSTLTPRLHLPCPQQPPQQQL
# [5] = target: full-length recombinant KDM5A (Homo sapiens, UniProt P29375); experiment: KDM5A enzyme kinetic assay; format: biochemical
# full-length recombinant KDM5A, sequence (P29375 whole entry): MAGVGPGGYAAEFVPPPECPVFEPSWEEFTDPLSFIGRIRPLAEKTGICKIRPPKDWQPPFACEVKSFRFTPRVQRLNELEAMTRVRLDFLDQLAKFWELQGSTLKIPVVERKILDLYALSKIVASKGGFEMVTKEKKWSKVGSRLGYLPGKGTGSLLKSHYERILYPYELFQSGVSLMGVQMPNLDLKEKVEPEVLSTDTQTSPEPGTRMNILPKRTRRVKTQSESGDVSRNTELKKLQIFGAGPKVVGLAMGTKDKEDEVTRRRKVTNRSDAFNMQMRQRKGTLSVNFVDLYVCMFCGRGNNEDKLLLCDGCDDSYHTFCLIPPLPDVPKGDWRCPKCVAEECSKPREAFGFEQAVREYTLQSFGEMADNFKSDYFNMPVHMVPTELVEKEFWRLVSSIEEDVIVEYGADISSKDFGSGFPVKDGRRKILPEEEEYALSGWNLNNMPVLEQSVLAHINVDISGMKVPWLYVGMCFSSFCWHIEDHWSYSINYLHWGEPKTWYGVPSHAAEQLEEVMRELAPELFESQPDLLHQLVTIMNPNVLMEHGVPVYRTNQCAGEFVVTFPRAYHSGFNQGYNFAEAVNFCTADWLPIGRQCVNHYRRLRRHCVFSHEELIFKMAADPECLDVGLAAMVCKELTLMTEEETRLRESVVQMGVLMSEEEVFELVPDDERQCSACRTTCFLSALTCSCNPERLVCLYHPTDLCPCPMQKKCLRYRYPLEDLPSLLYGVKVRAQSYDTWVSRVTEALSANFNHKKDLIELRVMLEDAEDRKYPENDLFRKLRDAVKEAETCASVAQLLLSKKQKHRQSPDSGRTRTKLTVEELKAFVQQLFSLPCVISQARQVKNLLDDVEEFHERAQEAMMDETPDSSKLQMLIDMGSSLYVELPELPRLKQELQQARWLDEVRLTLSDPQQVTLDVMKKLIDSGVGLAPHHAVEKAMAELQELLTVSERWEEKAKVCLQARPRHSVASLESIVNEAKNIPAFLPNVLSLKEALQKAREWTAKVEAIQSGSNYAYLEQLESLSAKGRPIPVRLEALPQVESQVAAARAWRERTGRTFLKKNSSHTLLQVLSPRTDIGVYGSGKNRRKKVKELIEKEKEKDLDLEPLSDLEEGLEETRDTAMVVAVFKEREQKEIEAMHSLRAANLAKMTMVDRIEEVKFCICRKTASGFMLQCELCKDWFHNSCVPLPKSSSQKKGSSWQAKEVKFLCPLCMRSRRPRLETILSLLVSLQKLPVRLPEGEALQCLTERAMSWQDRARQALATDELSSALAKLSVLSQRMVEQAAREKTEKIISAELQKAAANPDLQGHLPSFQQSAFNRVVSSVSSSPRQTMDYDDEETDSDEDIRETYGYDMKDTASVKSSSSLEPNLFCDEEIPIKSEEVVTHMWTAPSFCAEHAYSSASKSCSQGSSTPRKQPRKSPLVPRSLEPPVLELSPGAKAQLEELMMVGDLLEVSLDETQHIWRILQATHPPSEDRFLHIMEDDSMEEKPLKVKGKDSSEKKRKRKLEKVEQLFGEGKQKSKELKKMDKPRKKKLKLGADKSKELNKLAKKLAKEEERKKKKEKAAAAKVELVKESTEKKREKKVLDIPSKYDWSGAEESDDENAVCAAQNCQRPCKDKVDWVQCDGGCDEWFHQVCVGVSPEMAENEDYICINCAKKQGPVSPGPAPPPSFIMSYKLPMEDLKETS
# [6] = target: KDM5A^F68L (Homo sapiens, UniProt P29375, F68L); format: biochemical
# KDM5A^F68L, sequence (P29375 whole entry F68L): as the sequence (P29375 whole entry) above, with F68L counted along it
# [7] = target: KDM5A^R429I (Homo sapiens, UniProt P29375, R429I); format: biochemical
# KDM5A^R429I, sequence (P29375 whole entry R429I): as the sequence (P29375 whole entry) above, with R429I counted along it
# [8] = system: trimethyl-H3K4 at sites differentially marked in TF1-IDH1^R132H cells, TF-1 cells; experiment: Trimethyl-H3K4 ChIP-seq; format: cell-based, human; settings: KDM5c70-treated TF-1 cells vs DMSO
# [9] = system: global 5hmC levels in TF-1 cells; experiment: Total 5hmC content by LC-MS; format: cell-based, human; settings: 21 days in the presence of KDM5c70, day 0 of cytokine withdrawal
# [10] = system: TF-1 cells; experiment: TF-1 cytokine-withdrawal assay; format: cell-based, human; settings: parental TF-1 cells passaged 21 days in the presence of KDM5c70
# [11] = system: IHA cells; experiment: Soft agar colony-forming assay; format: cell-based, human; settings: 50 nM KDM5c70, IHA cells passaged 7 times in the presence of KDM5c70
# [12] = system: global H3K4 trimethylation in TF-1 cells; experiment: Immunoblot analysis of global trimethyl-H3K4; format: cell-based, human; settings: 50 nM KDM5c70, 21 days, vs DMSO-treated TF-1 cells
# [13] = system: TF1-IDH1^R132H cells; experiment: Proliferation under cytokine-rich conditions; format: cell-based, human; settings: doses up to 100 nM, cytokine-rich media
# [14] = system: control TF-1 cells; experiment: Proliferation under cytokine-rich conditions; format: cell-based, human; settings: doses up to 100 nM, cytokine-rich media
# [15] = system: TF1-shTET2 cells; experiment: Cytokine-withdrawal assay of TET2-knockdown TF-1 cells; format: cell-based, human; settings: pre-treatment for two weeks prior to cytokine withdrawal
# [16] = system: TF1-IDH1^R132H cells; experiment: Cytokine-withdrawal assay of mutant IDH-transformed TF-1 cells; format: cell-based, human
# [17] = read-out: 2OG Km, mean ± SD of 3 to 7 assays, 50 mM Tris-HCl pH 7.5, 37 °C
# [18] = read-out: (R)-2HG IC50, fourfold 2OG concentration relative to 2OG Km
# [19] = read-out: (S)-2HG IC50, fourfold 2OG concentration relative to 2OG Km
# full-length recombinant KDM5D, sequence (Q9BY66 whole entry): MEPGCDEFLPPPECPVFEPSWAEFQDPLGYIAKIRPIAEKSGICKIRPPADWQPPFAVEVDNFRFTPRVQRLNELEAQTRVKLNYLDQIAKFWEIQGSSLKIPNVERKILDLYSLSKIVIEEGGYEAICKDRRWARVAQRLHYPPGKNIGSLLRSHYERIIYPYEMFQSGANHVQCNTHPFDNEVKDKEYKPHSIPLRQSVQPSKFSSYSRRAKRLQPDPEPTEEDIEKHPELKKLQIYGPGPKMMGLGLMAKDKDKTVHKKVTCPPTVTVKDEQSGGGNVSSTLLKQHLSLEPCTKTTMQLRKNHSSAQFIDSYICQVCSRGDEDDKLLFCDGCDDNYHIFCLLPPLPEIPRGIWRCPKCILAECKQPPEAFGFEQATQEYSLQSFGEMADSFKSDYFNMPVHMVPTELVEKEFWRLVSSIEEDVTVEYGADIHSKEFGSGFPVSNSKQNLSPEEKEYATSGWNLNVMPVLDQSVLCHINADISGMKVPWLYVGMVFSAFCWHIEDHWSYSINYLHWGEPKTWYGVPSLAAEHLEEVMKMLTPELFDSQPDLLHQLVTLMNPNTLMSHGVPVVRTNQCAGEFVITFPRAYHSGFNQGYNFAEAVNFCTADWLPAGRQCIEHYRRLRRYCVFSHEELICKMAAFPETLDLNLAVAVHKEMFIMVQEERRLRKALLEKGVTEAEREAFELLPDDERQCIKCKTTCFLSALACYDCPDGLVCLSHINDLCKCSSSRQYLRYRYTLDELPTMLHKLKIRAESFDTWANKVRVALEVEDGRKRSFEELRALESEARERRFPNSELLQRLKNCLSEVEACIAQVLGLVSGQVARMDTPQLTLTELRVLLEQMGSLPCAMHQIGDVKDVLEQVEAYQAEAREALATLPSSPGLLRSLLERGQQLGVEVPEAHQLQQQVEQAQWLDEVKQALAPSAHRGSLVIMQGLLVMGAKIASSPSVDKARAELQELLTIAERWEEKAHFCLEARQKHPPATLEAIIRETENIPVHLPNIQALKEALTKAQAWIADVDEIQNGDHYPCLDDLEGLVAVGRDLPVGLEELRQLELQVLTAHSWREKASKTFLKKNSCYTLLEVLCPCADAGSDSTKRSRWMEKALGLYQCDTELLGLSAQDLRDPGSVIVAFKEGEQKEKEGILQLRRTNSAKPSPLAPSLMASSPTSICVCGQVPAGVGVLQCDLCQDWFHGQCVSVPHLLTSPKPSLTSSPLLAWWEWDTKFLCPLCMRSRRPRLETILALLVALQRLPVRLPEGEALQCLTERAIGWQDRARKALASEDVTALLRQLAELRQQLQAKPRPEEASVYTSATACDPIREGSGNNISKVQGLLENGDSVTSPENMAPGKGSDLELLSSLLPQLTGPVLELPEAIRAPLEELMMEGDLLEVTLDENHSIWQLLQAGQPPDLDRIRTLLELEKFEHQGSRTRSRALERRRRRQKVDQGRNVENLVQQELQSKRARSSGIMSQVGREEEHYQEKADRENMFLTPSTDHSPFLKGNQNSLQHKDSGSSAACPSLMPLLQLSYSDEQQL
compound,measurement,setting,value
"O=C(O)CCC(=O)C(=O)O [2OG, 2-oxoglutarate]",Km,[1]; [17],4.3 ± 1.5 µM
same,Km,[2]; read-out: 2OG Km,55 ± 20 µM
same,Km,[3]; read-out: 2OG Km,10 ± 2 µM
same,Km,[4]; [17],2700 ± 400 nM
same,Km,"[5]; read-out: 2OG Km, mean ± SD of 3 to 7 assays, 50 mM MES pH 6.5, 37 °C",4.5 ± 0.3 µM
"O=C(O)CC[C@@H](O)C(=O)O [(R)-2HG, (R)-2-hydroxyglutarate]",IC50,[1]; [18],800 ± 190 µM
same,IC50,[2]; read-out: (R)-2HG IC50,~5 mM and 5 mM
same,IC50,[4]; [18],670 ± 100 µM
same,IC50,[5]; [18],930 ± 200 µM
same,sensitivity to inhibition by (R)-2HG compared with wild-type KDM5A,[6],similarly sensitive to inhibition by (R)-2HG
same,sensitivity to inhibition by (R)-2HG compared with wild-type KDM5A,[7],similarly sensitive to inhibition by (R)-2HG
O=C(O)CC[C@H](O)C(=O)O [(S)-2HG],inhibition of KDM5D (in words),[1],potently inhibited
same,IC50,[1]; [19],310 ± 30 µM
same,IC50,[2]; read-out: (S)-2HG IC50,1.6 mM
same,inhibition of KDM5C (in words),[4],potently inhibited
same,IC50,[4]; [19],200 ± 10 µM
same,inhibition of KDM5A (in words),[5],potently inhibited
same,IC50,[5]; [19],150 ± 100 µM
CCOC(=O)c1ccnc(CNCC(=O)N(CC)CCN(C)C)c1 [KDM5c70],trimethyl-H3K4 ChIP-seq signal at sites enriched in TF1-IDH1^R132H cells,[8],trimethyl-H3K4-rich regions were enriched
same,effect on global 5hmC levels,[9],neither KDM5A/C/D triple knockout nor treatment with KDM5c70 had a significant effect
same,induction of TF-1 cytokine independence,[10],sufficient to induce TF-1 cytokine independence
same,soft agar colony formation,[11],sufficient to induce soft agar colony formation
same,effect on global trimethyl-H3K4 levels (western blot),[12],increased global levels of trimethyl-H3K4
CC(C)N(C(=O)c1cc(F)ccc1Oc1cncnc1N1CC2(CCN(CC3CCC(NS(C)(=O)=O)CC3)CC2)C1)C(C)C (centres unmarked) [VTP50469],effect on cytokine-dependent proliferation,[13],no effect
same,effect on cytokine-dependent proliferation,[14],no effect
same,effect on cytokine independent proliferation,[15],inhibited the cytokine independent proliferation of TF1-shTET2 cells to a similar extent as TF1-IDH1^R132H cells
same,effect on cytokine independence,[16]; pre-treatment for two weeks prior to cytokine withdrawal,did inhibit TF1-IDH1^R132H cytokine independence in a dose-dependent manner
same,effect on cytokine independence,[16]; treatment started on day 0 of cytokine withdrawal,no effect
